Laboratory results: ChEMBL document CHEMBL6177991, “Discovery of P11-2: A Potent First-in-Class MNK1-Targeting PROTAC Degrader for the Treatment of Cancer” (J Med Chem, 2025)
Active and inactive are the calls of the source. The rule behind the calls is not given here.

Experiments:
MV4-11 [1] = test: Upregulation of RNA transport pathways related protein expression in human MV4-11 cells by GO analysis; format: functional, cell-based
MV4-11 [2] = test: Upregulation of ubiquitin-mediated proteolysis pathway related protein expression in human MV4-11 cells by GO analysis; format: functional, cell-based
MV4-11 [3] = test: Induction of apoptosis in human MV4-11 cells assessed as viable cells at 30 nM incubated for 24 hrs by Annexin V-FITC/PI dual staining based flow cytometric analysis (reference value: 94.9 %); format: functional; conditions: read-out: Activity
[4] = Tmax in male Sprague-Dawley rat at 20 mg/kg, po measured up to 24 hrs by LC-MS analysis; format: ADME, organism-based; conditions: in vivo
[5] = Half life in male Sprague-Dawley rat at 20 mg/kg, po measured up to 24 hrs by LC-MS analysis; format: ADME, organism-based; conditions: in vivo
[6] = Toxicity in male ICR mouse assessed as histopathological change in spleen at 100 mg/kg, ip measured after 14 days by hematoxylin and eosin staining based analysis; format: organism-based; conditions: in vivo, 336 h, time 14 day
[7] = Cmax in male Sprague-Dawley rat at 5 mg/kg, ip measured up to 24 hrs by LC-MS analysis; format: ADME, organism-based; conditions: in vivo
[8] = Toxicity in male ICR mouse assessed as change in serum BUN level at 100 mg/kg, ip measured after 14 days; format: organism-based; conditions: in vivo, 336 h, time 14 day
[9] = Oral bioavailability in male Sprague-Dawley rat at 20 mg/kg measured up to 24 hrs by LC-MS analysis; format: ADME, organism-based; conditions: in vivo
MV4-11 [10] = test: Upregulation of mTOR pathway related protein expression in human MV4-11 cells by GO analysis; format: functional, cell-based
[11] = Hepatotoxicity in nude female NSG mouse xenografted with human MV4-11 cells assessed as change in serum TBIL level at 20 mg/kg, ip qd administrated for 16 days; format: toxicity, organism-based; conditions: in vivo, 384 h, time 16 day
Mus musculus = test: In vivo PROTAC activity at CRBN/MNK1 in human MV4-11 cells xenografted in nude female NSG mouse assessed as induction of MNK1 degradation at 20 mg/kg, ip qd administrated for 16 days by Western blot analysis; format: functional, organism-based; conditions: time 16.0 day
[12] = Toxicity in male ICR mouse assessed as change in serum TBA level at 100 mg/kg, ip measured after 14 days; format: organism-based; conditions: in vivo, 336 h, time 14 day
[13] = AUC (0 to t) in male Sprague-Dawley rat at 20 mg/kg, po measured up to 24 hrs by LC-MS analysis; format: ADME, organism-based; conditions: in vivo
[14] = Toxicity in male ICR mouse assessed as histopathological change in heart at 100 mg/kg, ip measured after 14 days by hematoxylin and eosin staining based analysis; format: organism-based; conditions: in vivo, 336 h, time 14 day
[15] = Toxicity in male ICR mouse assessed as change in serum uric acid level at 100 mg/kg, ip measured after 14 days; format: organism-based; conditions: in vivo, 336 h, time 14 day
MV4-11 [16] = test: Induction of MNK2 degradation in human MV4-11 cells at 10 to 1000 nM incubated for 24 hrs by immunoblot analysis; format: cell-based; conditions: dose 10-1000 nM
[17] = Toxicity in male ICR mouse assessed as change in serum CK-MB level at 100 mg/kg, ip measured after 14 days; format: organism-based; conditions: in vivo, 336 h, time 14 day
MV4-11 [18] = test: Upregulation of PI3K-Akt pathway related protein expression in human MV4-11 cells by GO analysis; format: functional, cell-based
MV4-11 [19] = test: Downregulation of C9orf40 expression level in human MV4-11 cells at 300 nM incubated for 24 hrs by DIA-based quantitative proteomics analysis; format: functional, cell-based
[20] = Toxicity in nude female NSG mouse xenografted with human MV4-11 cells assessed as change in serum creatinine level at 20 mg/kg, ip qd administrated for 16 days; format: organism-based; conditions: in vivo, 384 h, time 16 day
[21] = Toxicity in nude female NSG mouse xenografted with human MV4-11 cells assessed as change in body weight at 20 mg/kg, ip qd administrated for 16 days; format: organism-based; conditions: in vivo, 384 h, time 16 day
[22] = Hepatotoxicity in nude female NSG mouse xenografted with human MV4-11 cells assessed as change in serum ALT level at 20 mg/kg, ip qd administrated for 16 days; format: toxicity, organism-based; conditions: in vivo, 384 h, time 16 day
[23] = Toxicity in male ICR mouse assessed as change in serum TBIL level at 100 mg/kg, ip measured after 14 days; format: organism-based; conditions: in vivo, 336 h, time 14 day
MV4-11 [24] = test: Downregulation of SUFU expression level in human MV4-11 cells at 300 nM incubated for 24 hrs by DIA-based quantitative proteomics analysis; format: functional, cell-based
[25] = Half life in male Sprague-Dawley rat at 1 mg/kg, iv measured up to 24 hrs by LC-MS analysis; format: ADME, organism-based; conditions: in vivo
MV4-11 [26] = test: Induction of apoptosis in human MV4-11 cells assessed as necrotic cells at 300 nM incubated for 24 hrs by Annexin V-FITC/PI dual staining based flow cytometric analysis (reference value: 0.16 %); format: functional
MV4-11 [27] = test: Induction of cell cycle arrest in human MV4-11 cells assessed as decrease in accumulation of cells at S phase incubated for 24 hrs by PI staining based flow cytometric analysis; format: functional; conditions: dose 30-300 µM
MV4-11 [28] = test: Induction of apoptosis in human MV4-11 cells assessed as viable cells at 300 nM incubated for 24 hrs by Annexin V-FITC/PI dual staining based flow cytometric analysis (reference value: 94.9 %); format: functional; conditions: read-out: Activity
MV4-11 [29] = test: Effect on GSPT1 expression in human MV4-11 cells at 10 to 1000 nM incubated for 24 hrs by immunoblot analysis; format: functional, cell-based; conditions: dose 10-1000 nM
[30] = Toxicity in male ICR mouse assessed as change in serum creatinine level at 100 mg/kg, ip measured after 14 days; format: organism-based; conditions: in vivo, 336 h, time 14 day
[31] = Toxicity in nude female NSG mouse xenografted with human MV4-11 cells assessed as change in serum uric acid level at 20 mg/kg, ip qd administrated for 16 days; format: organism-based; conditions: in vivo, 384 h, time 16 day
[32] = Toxicity in male ICR mouse assessed as histopathological change in kidney at 100 mg/kg, ip measured after 14 days by hematoxylin and eosin staining based analysis; format: organism-based; conditions: in vivo, 336 h, time 14 day
MV4-11 [33] = test: Effect on MNK2 expression level in human MV4-11 cells at 300 nM incubated for 24 hrs by DIA-based quantitative proteomics analysis; format: functional, cell-based
MV4-11 [34] = test: Induction of apoptosis in human MV4-11 cells assessed as late apoptotic cells at 300 nM incubated for 24 hrs by Annexin V-FITC/PI dual staining based flow cytometric analysis (reference value: 1.48 %); format: functional
[35] = Toxicity in male ICR mouse assessed as change in serum ALT level at 100 mg/kg, ip measured after 14 days; format: organism-based; conditions: in vivo, 336 h, time 14 day
MV4-11 [36] = test: Induction of apoptosis in human MV4-11 cells assessed as early apoptotic cells at 300 nM incubated for 24 hrs by Annexin V-FITC/PI dual staining based flow cytometric analysis (reference value: 3.42 %); format: functional
MV4-11 [37] = test: Effect on IKZF1 expression in human MV4-11 cells at 10 to 1000 nM incubated for 24 hrs by immunoblot analysis; format: functional, cell-based; conditions: dose 10-1000 nM
MV4-11 [38] = test: Induction of cell cycle arrest in human MV4-11 cells assessed as increase in accumulation of cells at G1 phase at 30 to […] incubated for 24 hrs by PI staining based flow cytometric analysis; format: functional; conditions: dose lower 30.0 µM
MV4-11 [39] = test: Upregulation of ubiquitin-mediated proteolysis pathway related protein expression in human MV4-11 cells by KEGG analysis; format: functional, cell-based

Tmax [4]: 1.4 h
half-life [5]: 7.1 h
Cmax [7]: 1970 ng/mL
bioavailability [9]: 2.1%
AUC(0-t) at 24 h [13]: 2950 ng·h/mL
half-life [25]: 4.3 h
Structure (SMILES): O=C1CCC(N2Cc3c(NC(=O)CCCCCC(=O)N4CCC(C(=O)Nc5ncc(-c6ccccc6)s5)CC4)cccc3C2=O)C(=O)N1 (stereo not given)
Activity (MV4-11 [1]): Active
Activity (MV4-11 [2]): Active
viability at 0.03 µM (MV4-11 [3]): 85.8%
Activity [6]: Non-toxic
Activity [8]: Non-toxic
Activity (MV4-11 [10]): Active
Activity [11]: Non-toxic
Activity (Mus musculus): Active
Activity [12]: Non-toxic
Activity [14]: Non-toxic
Activity [15]: Non-toxic
Activity (MV4-11 [16]): inactive
Activity [17]: Non-toxic
Activity (MV4-11 [18]): Active
Activity (MV4-11 [19]): Active
Activity [20]: Non-toxic
Activity [21]: Non-toxic
Activity [22]: Non-toxic
Activity [23]: Non-toxic
Activity (MV4-11 [24]): Active
Activity (MV4-11 [26]): 1.36%
Activity (MV4-11 [27]): Dose-dependent-effect
viability at 0.3 µM (MV4-11 [28]): 28%
Activity (MV4-11 [29]): No effect
Activity [30]: Non-toxic
Activity [31]: Non-toxic
Activity [32]: Non-toxic
Activity (MV4-11 [33]): No effect
Activity (MV4-11 [34]): 42.1%
Activity [35]: Non-toxic
Activity (MV4-11 [36]): 28.6%
Activity (MV4-11 [37]): No effect
Activity (MV4-11 [38]): Active
Activity (MV4-11 [39]): Active
